How the values were obtained:
[1] = tested on: PD-L1 expression on NK cells; assay: PD-L1 expression on NK cells incubated with K562 cells in the presence of pathway inhibitors; assay type: cell-based, human; details: inhibitor 1 μM or 10 μM, FIGS. 6B, 6C
Procedure: (§1) FIGS. 6A-6J present data showing signaling pathways activating PD-L1^+ NK cells. […] “D1+” represents PD-L1^+ NK cells from donor 1, while “D1−” represents PD-L1^− NK cells from donor 1, each purified by FACS sorting. Similar definitions are applied to “D2+”, “D2−”, “D3+”, and “D3−”. Expression of Cd274 (PD-L1), Cd226, Tbx21, Eomes, Smad3 and Aka are highlighted by black arrows. […] The percentages of PD-L1+ NK cells were measured by flow cytometry. […] Data were generated from five (5) independent donors, and the experiment was repeated three times. […] Relative promoter activity was measured by luciferase assay after 48 hours. […] The experiments were repeated three times. […] The experiments were repeated three times.
To investigate mechanisms by which PD-L1 is induced in NK cells by myeloid leukemia cells, an RNA microarray was performed to profile gene expression in PD-L1^+ NK cells vs PD-L1^− NK cells, both of which were FACS-purified from bulk NK cells after being co-cultured with K562 cells. […] They were subsequently incubated with K562 myeloid leukemia cells and then PD-L1 expression on NK cells was measured. […] A PD-L1 promoter was cloned 2.1 kb upstream of the transcription start site, co-transfected with genes for specific transcription factors in 293T cells, and the activity of the PD-L1 promoter was measured by luciferase assay. […]

[2] = tested on: NK cells incubated with K562 cells; assay: p38 inhibitors on AZ-induced PD-L1, CD107α and IFN-γ expression of NK cells; assay type: cell-based, human; details: presence of K562 tumor cells, 1 μM inhibitor; for AZ-induced PD-L1 expression: FIG. 6H; for AZ-induced CD107α expression of NK cells / AZ-induced IFN-γ expression of NK cells: FIG. 6J
Procedure: as §1
Two paired groups were compared by paired t-test. One-way ANOVA with repeated measures or linear mixed model was used to compare three (3) or more donor-matched groups. P values were adjusted by the Holm-Sidak method.
(§2) Cells were suspended in 100 μl PBS with 2% FBS and incubated with the indicated mAb (Table 2) at room temperature for 20 mins. After washing with 2% FBS for one time and PBS for another time, cells were fixed in 1% paraformaldehyde buffer for immediate analysis by flow cytometry using a LSRII flow cytometer (BD Biosciences). Cells used for sorting were re-suspended in RPMI 1640 containing 10% FBS. For intracellular flow cytometry, cells were permeabilized and fixed using the Foxp3/Transcription Factor Fixation/Permeabilization kit (eBioscience, Cat #00-5523-00). Data were analyzed by FlowJo software.

[3] = tested on: PD-L1+ NK cells; assay: NK cell CD107α and IFN-γ expression after AZ treatment (flow cytometry); assay type: cell-based, human
Procedure: (§3) FIGS. 3A-3D present data showing that anti-PD-L1 monoclonal antibody atezolizumab (AZ) activates PD-L1 signaling in NK cells and enhances NK cell function. […] The P values were corrected for multiple comparisons by Holm's method. […] The experiment was repeated three times with three different donors. […] NK cells were sorted and the relative levels of PD-L1 mRNA expression were measured by qRT-PCR. The experiment was repeated three times. […] Two paired groups were compared by paired t-test. One-way ANOVA with repeated measures or linear mixed model was used to compare three (3) or more donor-matched groups. P values were adjusted by the Holm-Sidak method.
Peripheral blood samples from healthy donors were obtained from The American Red Cross. Human PBMCs were isolated by Percoll density gradient centrifugation. Primary human NK cells were enriched from the peripheral blood of healthy donors using an NK Cell Enrichment Kit (Miltenyi Biotec, Cat #0.130-115-818). Enriched NK cells with purity about 90% were either sorted by fluorescence-activated cell sorting (FACS) to the purity around 96% and then used or used immediately for in vitro cell culture experiments. […] All cell lines were maintained in RPMI 1640 medium supplemented with 10% FBS and 100 U/ml penicillin/streptomycin. For co-culture stimulation experiments, PBMCs, enriched NK cells, or FACS-sorted NK cells were co-incubated with various cell lines including K562, MOLM-13, AML3, RPMI 8226 or MV-4-11 at an effector/target (E/T) ratio of 10:1. […] For transwell assay experiments, 5×10^5 enriched human primary NK cells were seeded in the upper chamber of a transwell plate. The lower chamber of the transwell plate was seeded with 5×10^4 K562 myeloid leukemia cells. The transwell plate with cells was incubated at 37° C. for 20 hr.
Cells were suspended in 100 μl PBS with 2% FBS and incubated with the indicated mAb (Table 2) at room temperature for 20 mins. […] Data were analyzed by FlowJo software.

[4] = tested on: PD-L1 expression on NK cells; assay: PD-L1 expression of K562-pretreated NK cells after AZ (qRT-PCR, flow cytometry); assay type: cell-based, human; details: time dependent
Procedure: as §3
as §2, with “software. […]” for “software.”

[5] = tested on: PD-L1-KO K562 myeloid leukemia cells; assay: NSG mouse model with human primary NK cells and PD-L1-KO K562 cells; assay type: in vivo, NSG mice
Excerpt: After 6 days, mice were sacrificed and NK cells were isolated and assessed for PD-L1 expression by flow cytometry. […] PBS instead of IgG1 was used as placebo because AZ lacks antibody-dependent cellular cytotoxicity activity. After 6 days (three treatments), mice were sacrificed and human NK cells were examined for their expression of granzyme B, CD107α, and IFN-γ, while the number of PD-L1-knockout K562 myeloid leukemia cells (as shown in FIG. 5C) was enumerated by flow cytometry. […] Two paired groups were compared by paired t-test. One-way ANOVA with repeated measures or linear mixed model was used to compare three (3) or more donor-matched groups. P values were adjusted by the Holm-Sidak method. Kaplan-Meier method was used to estimate survival functions and log-rank test was applied to group comparisons.
8-week old NSG mice were intravenously (i.v.) injected with PD-L1 knockout K562 myeloid leukemia cells at a concentration of 2 million cells per mouse. […] Mice in the atezolizumab (AZ)-treated or control group were simultaneously i.p-injected with 200 μg AZ in 200 μL PBS or 200 μL PBS per mouse. Cytokines and AZ were injected every other day for a total of […]. The numbers of NK cells and tumor cells were examined at day 6 post injection.

[6] = tested on: p38, p-ERK, p-AKT, p-mTOR in NK cells; assay: Downstream kinase phosphorylation in NK cells after AZ (intracellular flow cytometry, immunoblot); assay type: cell-based, human; details: NK cells with K562 cells, AZ treatment
Procedure: as §1
FIG. 13 presents data showing induction of p38-NF-κB signaling in primary human NK cells by the anti-PD-L1 antibody AZ. […] The histograms provided in the upper panel represent quantification of various phosphorylated kinases expressed in NK cells, followed by a graphical summary of the data (n=3) below each histogram. One-way ANOVA with repeated measures or linear mixed model was used to compare three (3) or more donor-matched groups and P values were adjusted by the Holm-Sidak method. ****, P<0.0001; NS=not significant.
as §2
Cells were pelleted and lysed in protein extraction reagent (Thermo Fisher, Cat. #78510) supplied with proteinase inhibitors. Standard procedures were used for immunoblotting. Primary antibodies used were PD-L1 (Cell Signaling Technology, Cat. #13684), GAPDH (Cell Signaling Technology, Cat. #2118), β-actin (Cell Signaling Technology, Cat. #4967), p-p38 (Cell Signaling Technology, Cat. #9211) and p-AKT (Cell Signaling Technology, Cat. #9271). Proteins were detected using goat anti-rabbit HRP-conjugated secondary antibodies (Cell Signaling Technology, Cat. #7074).

[7] = tested on: PD-L1 expression on expanded human primary NK cells; assay: PD-L1 expression on expanded human primary NK cells with AZ; assay type: cell-based; details: expanded 7 days with K562 feeder cells, with or without 5 ng/ml IL-12 and IL-18 for 20 h; FIG. 15
Procedure: Expanded human primary NK cells for 7 days with indicated medium (R10: RPMI1640+10% FBS; MACS: MACS medium+5% human serum; SCGM: SCGM medium+5% human serum) were treated with or without 5 ng/ml IL-12 and IL-18 for 20 h in the presence of AZ or not. The expression of PD-L1 were examined by flow cytometry. P values of multiple comparison were analyzed using one-way ANOVA. Multiple comparison test was adjusted by Holm-Sidak method. ****, P<0.0001.
Expanded human primary NK cells for 7 days with indicated medium (R10: RPMI1640+10% FBS; MACS: MACS medium+5% human serum; SCGM: SCGM medium+5% human serum) were treated with or without 5 ng/ml IL-12 and IL-18 for 20 h in the presence of AZ or not. The expression of PD-L1 were examined by flow cytometry (FIG. 15). PBMC from lung cancer patients were isolated and examined for PD-L1 expression by flow cytometry (FIG. 16).

[8] = tested on: ADCC; details: Fc domain modification; cited from earlier work
[9] = tested on: PD-L1 expression on NK cells; assay: Induction of PD-L1 expression on NK cells by NK cell-activating cytokines; assay type: cell-based, human; details: alone or in combination with other cytokines, 10 ng/mL, 24 hour; FIG. 11F
Procedure: The cytotoxicity levels of total NK cells incubated with medium alone were served as control. The cytokine-treated bulk NK cells were permeabilized and gated PD-L1+ and PD-L1^− cells to measure the MFI of IFN-γ by flow cytometry assay as shown in FIG. 11D. […] Summary graph (n=3) is shown at the bottom. […] Summary graph (n=3) is shown at the bottom. Two-sample t test was used for 2-group comparisons. One-way ANOVA was used to compare three (3) or more groups and P values were adjusted by the Holm-Sidak method. **, P<0.01; ***, P<0.001; ****, P<0.0001; NS=not significant.
Peripheral blood samples from healthy donors were obtained from The American Red Cross. Human PBMCs were isolated by Percoll density gradient centrifugation. Primary human NK cells were enriched from the peripheral blood of healthy donors using an NK Cell Enrichment Kit (Miltenyi Biotec, Cat #0.130-115-818). Enriched NK cells with purity about 90% were either sorted by fluorescence-activated cell sorting (FACS) to the purity around 96% and then used or used immediately for in vitro cell culture experiments. NK cells were cultured in RPMI 1640 supplemented with 20% FBS, 100 U/ml penicillin/streptomycin, and 10 ng/ml IL-2. […]
Cells were suspended in 100 μl PBS with 2% FBS and incubated with the indicated mAb (Table 2) at room temperature for 20 mins. […] Data were analyzed by FlowJo software. […]

[10] = NK cells stimulated with PD-L1 knock-out K562 cells 20 hours, then 20 μg/mL AZ 4 hours, FIG. 3A
[11] = vs placebo (PBS), i.p. every other day, after 6 days, FIG. 5B

With `Cn1ncc(Cl)c1-c1cc(C(=O)N[C@H](CN)Cc2cccc(F)c2)sc1Cl` [afuresertib] the “PD-L1 expression on NK cells” value [1] was “significantly reduced”.
For `C[S+]([O-])c1ccc(-c2nc(-c3ccncc3)c(-c3ccc(F)cc3)[nH]2)cc1` (stereo not drawn) [SB203580], the “AZ-induced PD-L1 expression” value [2] was “reduce”, the “AZ-induced CD107α expression of NK cells” value [2] was “inhibited” and the “AZ-induced IFN-γ expression of NK cells” value [2] was “inhibited”.
With atezolizumab [AZ] the “expression of CD107a in PD-L1+ NK cells” value [3, 10] was “increased”, the “expression of IFN-γ in PD-L1+ NK cells” value [3, 10] was “increased” and the “IFN-γ production of PD-L1-transduced NK cells” value ([3]; lentiviral PD-L1-transduced NK cells treated with AZ, FIG. 3B) was “even more dramatically increased”. The “PD-L1 expression of NK cells, mRNA level” value ([4]; NK cells pretreated with K562, 20 μg/mL AZ, FIG. 3C) was “further elevated”, the “PD-L1 expression of NK cells, protein level” value ([4]; NK cells pretreated with K562, AZ, FIG. 3D) was “further elevated” and the “NK cell expression of CD107α” value [5, 11] was “significant increase”. The “NK cell expression of IFN-γ” value [5, 11] was “significant increase”, the “NK cell expression of granzyme B” value [5, 11] was “significant increase” and the “tumor burden (number of PD-L1-KO K562 cells)” value ([5]; vs placebo-treated mice, upon sacrifice, FIG. 5C) was “significantly lower”. The “level of p38” value ([6]; IL-2 10 ng/mL, FIG. 13, 6G) was “increased”, the “level of p-ERK” value ([6]; FIG. 13) was “not increased” and the “level of p-mTOR” value ([6]; FIG. 13) was “not increased”. For the same compound, the “level of p-AKT” value ([6]; FIG. 13, 6G) was “not increased”, the “expression of PD-L1 on expanded human primary NK cells” value [7] was “further enhanced” and the ADCC effect [8] was “absence”.
In the case of `Cc1ccc(S(=O)(=O)N[C@@H](Cc2ccccc2)C(=O)CCl)cc1` [TPCK], the “PD-L1 expression on NK cells” value [1] is reported as “regulation role of p65 in PD-L1 expression was confirmed”.
With “recombinant IFN-γ: recombinant interferon gamma” the “PD-L1 expression on NK cells” value [9] was “could not induce”.
In the case of `Oc1ccc(-c2nc(-c3ccncc3)c(-c3ccc(F)cc3)[nH]2)cc1` [SB202190], the “AZ-induced PD-L1 expression” value [2] is reported as “reduce”, the “AZ-induced CD107α expression of NK cells” value [2] is reported as “inhibited” and the “AZ-induced IFN-γ expression of NK cells” value [2] is reported as “inhibited”.

Reference: US20220249564A1, “PDL1 POSITIVE NK CELL CANCER TREATMENT” (City of Hope, priority 2019, published 2022)
